# Experimental data taken from patent US11337976B2 (Plexxikon Inc., priority 2011, dated 2022).
# System: A375 melanoma cells (B-Raf V600E mutation)
# Test: A375 (A375_P-ERK) cell activity / cell growth inhibition assay
# Assay type: cell-based, human
# Details: Homo sapiens, A-375; A375 cells (text: A375_P-ERK)
# Procedure: Compounds are assessed in a variety of cell based assays. For example human cell lines with B-RafV600E mutation (A375 melanoma, SKMEL3 melanoma, and COLO205 colon adenocarcinoma), as well as tumorigenic cell lines with wild-type B-RAF (SW620 colon adenocarcinoma) or with Ras mutations (SKMEL2 melanoma and IPC298 melanoma).
# On day 1, cells are counted, then centrifuged in a conical tube for 5 minutes at 1000 rpm.
# On day 2, compound at a maximum concentration of 5 mM is serially diluted 1:3 (e.g. 10 μL with 30 μL dimethyl sulfoxide) for a total of 8 point titration with DMSO as a control. A 1 μL aliquot of each dilution point and control is added to 249 μL growth media and 50 μL is added to a well containing cells, providing 10 μM compound at the maximum concentration point. The cells are incubated for 3 days at 37° C. in 5% CO2.
# ATPlite is added 25 μL to each well, shake for 2 minutes, and the cells are incubated at room temperature for 10 minutes, then luminescence is read on Safire reader. The measured luminescence correlates directly with cell number, such that the reading as a function of compound concentration is used to determine the IC50 value.
row,SMILES,IC50
1,"CCN(C)S(=O)(=O)Nc1ccc(F)c(C(=O)c2c[nH]c3ncc(-c4cncs4)cc23)c1F [P-0315, 5-[3-[3-[[ethyl(methyl)sulfamoyl]amino]-2,6-difluoro-benzoyl]-1H-pyrrolo[2,3-b]pyridin-5-yl]thiazole]",< 1 µM
2,"CCC(C)S(=O)(=O)Nc1cccc(C(=O)c2c[nH]c3ncc(-c4cnc(N5CCOCC5)nc4)cc23)c1F (stereo not shown) [P-0236, N-[2-fluoro-3-[5-(2-morpholinopyrimidin-5-yl)-1H-pyrrolo[2,3-b]pyridine-3-carbonyl]phenyl]butane-2-sulfonamide]",< 1 µM
3,"CCN(C)S(=O)(=O)Nc1cccc(C(=O)c2c[nH]c3ncc(-c4ccc(C#N)c(OC)c4)cc23)c1F [P-0060, 5-(4-cyano-3-methoxy-phenyl)-3-[3-[[ethyl(methyl)sulfamoyl]amino]-2-fluoro-benzoyl]-1H-pyrrolo[2,3-b]pyridine]",< 1 µM
4,"Cc1ccnc(-c2cnc3[nH]cc(C(=O)c4cccc(NS(=O)(=O)N5CCCC5)c4F)c3c2)n1 [P-0326, N-[2-fluoro-3-[5-(4-methylpyrimidin-2-yl)-1H-pyrrolo[2,3-b]pyridine-3-carbonyl]phenyl]pyrrolidine-1-sulfonamide]",> 1 µM
5,"O=C(c1c(F)ccc(NS(=O)(=O)N2CCCC2)c1F)c1c[nH]c2ncc(-c3ccnc(N4CCOCC4)c3)cc12 [P-0284, N-[2,4-difluoro-3-[5-(2-morpholino-4-pyridyl)-1H-pyrrolo[2,3-b]pyridine-3-carbonyl]phenyl]pyrrolidine-1-sulfonamide]",< 1 µM
6,CCN(C)S(=O)(=O)Nc1ccc(F)c(C(=O)c2c[nH]c3ncc(-c4cnc(N5CCC(O)CC5)nc4)cc23)c1F [P-0275],< 1 µM
7,"O=C(c1c(F)ccc(NS(=O)(=O)N2CCCC2)c1F)c1c[nH]c2ncc(-c3ccnc(N4CCOCC4)n3)cc12 [P-0282, N-[2,4-difluoro-3-[5-(2-morpholinopyrimidin-4-yl)-1H-pyrrolo[2,3-b]pyridine-3-carbonyl]phenyl]pyrrolidine-1-sulfonamide]",< 1 µM
8,"CN(C)S(=O)(=O)Nc1cccc(C(=O)c2c[nH]c3ncc(-c4cnc(C5CC5)nc4)cc23)c1F [P-0052, 5-(2-cyclopropylpyrimidin-5-yl)-3-[3-(dimethylsulfamoylamino)-2-fluoro-benzoyl]-1H-pyrrolo[2,3-b]pyridine]",< 1 µM
9,"COc1ncc(-c2cnc3[nH]cc(C(=O)c4cccc(NS(=O)(=O)N(C)CC(C)C)c4F)c3c2)cn1 [P-0072, 3-[2-fluoro-3-[[isobutyl(methyl)sulfamoyl]amino]benzoyl]-5-(2-methoxypyrimidin-5-yl)-1H-pyrrolo[2,3-b]pyridine]",< 1 µM
10,"Nc1cc(-c2cnc3[nH]cc(C(=O)c4cccc(NS(=O)(=O)N5CCCC5)c4F)c3c2)ncn1 [P-0299, N-[3-[5-(6-aminopyrimidin-4-yl)-1H-pyrrolo[2,3-b]pyridine-3-carbonyl]-2-fluoro-phenyl]pyrrolidine-1-sulfonamide]",> 1 µM
11,"CCCN(C)S(=O)(=O)Nc1ccc(F)c(C(=O)c2c[nH]c3ncc(-c4cnc(C5CC5)nc4)cc23)c1F [P-0078, 5-(2-cyclopropylpyrimidin-5-yl)-3-[2,6-difluoro-3-[[methyl(propyl)sulfamoyl]amino]benzoyl]-1H-pyrrolo[2,3-b]pyridine]",< 1 µM
12,"O=C(c1cccc(NS(=O)(=O)N2CCCC2)c1F)c1c[nH]c2ncc(-c3ccncc3)cc12 [P-0281, N-[2-fluoro-3-[5-(4-pyridyl)-1H-pyrrolo[2,3-b]pyridine-3-carbonyl]phenyl]pyrrolidine-1-sulfonamide]",< 1 µM
13,"CCCN(C)S(=O)(=O)Nc1cccc(C(=O)c2c[nH]c3ncc(-c4cnc(C)nc4)cc23)c1F [P-0111, 3-[2-fluoro-3-[[methyl(propyl)sulfamoyl]amino]benzoyl]-5-(2-methylpyrimidin-5-yl)-1H-pyrrolo[2,3-b]pyridine]",< 1 µM
14,CCN(C)S(=O)(=O)Nc1ccc(F)c(C(=O)c2c[nH]c3ncc(-c4cnc(OC)nc4)cc23)c1F [P-0014],< 1 µM
15,"CCN(C)S(=O)(=O)Nc1cccc(C(=O)c2c[nH]c3ncc(-c4ccc(N(C)C)nc4)cc23)c1F [P-0076, 5-[6-(dimethylamino)-3-pyridyl]-3-[3-[[ethyl(methyl)sulfamoyl]amino]-2-fluoro-benzoyl]-1H-pyrrolo[2,3-b]pyridine]",< 1 µM
16,"COc1cc(-c2cnc3[nH]cc(C(=O)c4c(F)ccc(NS(=O)(=O)N5CCCC5)c4F)c3c2)ccn1 [P-0287, N-[2,4-difluoro-3-[5-(2-methoxy-4-pyridyl)-1H-pyrrolo[2,3-b]pyridine-3-carbonyl]phenyl]pyrrolidine-1-sulfonamide]",< 1 µM

row,SMILES,IC50
1,"O=C(c1c(F)ccc(NS(=O)(=O)N2CCCC2)c1F)c1c[nH]c2ncc(-c3ccncc3)cc12 [P-0273, N-[2,4-difluoro-3-[5-(4-pyridyl)-1H-pyrrolo[2,3-b]pyridine-3-carbonyl]phenyl]pyrrolidine-1-sulfonamide]",< 1 µM
2,"CCN(C)S(=O)(=O)Nc1ccc(F)c(C(=O)c2c[nH]c3ncc(-c4cnc(N5CCNCC5)nc4)cc23)c1F [P-0268, 3-[3-[[ethyl(methyl)sulfamoyl]amino]-2,6-difluoro-benzoyl]-5-(2-piperazin-1-ylpyrimidin-5-yl)-1H-pyrrolo[2,3-b]pyridine]",< 1 µM
3,"CCN(C)S(=O)(=O)Nc1ccc(F)c(C(=O)c2c[nH]c3ncc(-c4csc(C(C)(C)O)n4)cc23)c1F [P-0316, 4-[3-[3-[[ethyl(methyl)sulfamoyl]amino]-2,6-difluoro-benzoyl]-1H-pyrrolo[2,3-b]pyridin-5-yl]-2-(1-hydroxy-1-methyl-ethyl)thiazole]",< 1 µM
4,"O=C(c1c(F)ccc(NS(=O)(=O)N2CCCC2)c1F)c1c[nH]c2ncc(-c3cnc(N4CCNCC4)nc3)cc12 [P-0261, N-[2,4-difluoro-3-[5-(2-piperazin-1-ylpyrimidin-5-yl)-1H-pyrrolo[2,3-b]pyridine-3-carbonyl]phenyl]pyrrolidine-1-sulfonamide]",< 1 µM
5,"CCC(C)S(=O)(=O)Nc1ccc(F)c(C(=O)c2c[nH]c3ncc(-c4ccc(Cl)cc4)cc23)c1F (stereo not shown) [P-0337, N-[3-[5-(4-chlorophenyl)-1H-pyrrolo[2,3-b]pyridine-3-carbonyl]-2,4-difluoro-phenyl]butane-2-sulfonamide]",> 1 µM
6,"CN(C)S(=O)(=O)Nc1cccc(C(=O)c2c[nH]c3ncc(-c4ccc(C5CC5)nc4)cc23)c1F [P-0113, 5-(6-cyclopropyl-3-pyridyl)-3-[3-(dimethylsulfamoylamino)-2-fluoro-benzoyl]-1H-pyrrolo[2,3-b]pyridine]",< 1 µM
7,"N#Cc1cncc(-c2cnc3[nH]cc(C(=O)c4cccc(NS(=O)(=O)N5CCCC5)c4F)c3c2)c1 [P-0093, N-[3-[5-(5-cyano-3-pyridyl)-1H-pyrrolo[2,3-b]pyridine-3-carbonyl]-2-fluoro-phenyl]pyrrolidine-1-sulfonamide]",< 1 µM
8,"CN1CCN(c2cc(-c3cnc4[nH]cc(C(=O)c5cccc(NS(=O)(=O)N6CCCC6)c5F)c4c3)ncn2)CC1 [P-0322, N-[2-fluoro-3-[5-[6-(4-methylpiperazin-1-yl)pyrimidin-4-yl]-1H-pyrrolo[2,3-b]pyridine-3-carbonyl]phenyl]pyrrolidine-1-sulfonamide]",< 1 µM
9,"NC(=O)C1(c2ccc(-c3cnc4[nH]cc(C(=O)c5cccc(NS(=O)(=O)N6CCCC6)c5F)c4c3)cc2)CC1 [P-0253, 1-[4-[3-[2-fluoro-3-(pyrrolidin-1-ylsulfonylamino)benzoyl]-1H-pyrrolo[2,3-b]pyridin-5-yl]phenyl]cyclopropanecarboxamide]",> 1 µM
10,"CCN(C)S(=O)(=O)Nc1cccc(C(=O)c2c[nH]c3ncc(C4CC4)cc23)c1F [P-0298, 5-cyclopropyl-3-[3-[[ethyl(methyl)sulfamoyl]amino]-2-fluoro-benzoyl]-1H-pyrrolo[2,3-b]pyridine]",> 1 µM
11,"N#CC1(c2ccc(-c3cnc4[nH]cc(C(=O)c5c(F)ccc(NS(=O)(=O)N6CCCC6)c5F)c4c3)cc2)CC1 [P-0248, N-[3-[5-[4-(1-cyanocyclopropyl)phenyl]-1H-pyrrolo[2,3-b]pyridine-3-carbonyl]-2,4-difluoro-phenyl]pyrrolidine-1-sulfonamide]",< 1 µM
12,"CN(C)S(=O)(=O)Nc1cccc(C(=O)c2c[nH]c3ncc(I)cc23)c1F [P-0110, 3-[3-(dimethylsulfamoylamino)-2-fluoro-benzoyl]-5-iodo-1H-pyrrolo[2,3-b]pyridine]",< 1 µM
13,"COc1cc(-c2cnc3[nH]cc(C(=O)c4cccc(NS(=O)(=O)N5CCCC5)c4F)c3c2)ccc1C#N [P-0049, N-[3-[5-(4-cyano-3-methoxy-phenyl)-1H-pyrrolo[2,3-b]pyridine-3-carbonyl]-2-fluoro-phenyl]pyrrolidine-1-sulfonamide]",< 1 µM
14,"CCN(C)S(=O)(=O)Nc1ccc(F)c(C(=O)c2c[nH]c3ncc(-c4ccc5nc(N(C)C)ncc5c4)cc23)c1F [P-0313, 2-(dimethylamino)-6-[3-[3-[[ethyl(methyl)sulfamoyl]amino]-2,6-difluoro-benzoyl]-1H-pyrrolo[2,3-b]pyridin-5-yl]quinazoline]",< 1 µM
15,"CCN(C)S(=O)(=O)Nc1cccc(C(=O)c2c[nH]c3ncnc(N[C@@H](C)C4CC4)c23)c1F [P-0089, 4-[[(1 S)-1-cyclopropylethyl]amino]-5-[3-[[ethyl(methyl)sulfamoyl]amino]-2-fluoro-benzoyl]-7H-pyrrolo[2,3-d]pyrimidine]",< 1 µM
